{"source": "patent US10064865B2", "about": "“Composition comprising phosphodiesterase type 5 inhibitor for inhibiting apoptosis of nerve cells” (ARIBIO INC., priority 2012, dated 2018)", "key": {"[1]": {"system": "neuron apoptosis-operated rats, ipsilateral cerebral cortex", "assay": "Example 2 (timing of administration) histopathology: cerebral atrophy and degenerative neurons", "type": "in vivo, Sprague-Dawley (SD) rats", "settings": "for Cerebral atrophic % / Numbers of neurons: Degenerative cells: 1 mg/kg s.c. once a day for 14 days, 29 days after neuron apoptosis", "description": "Total one hundred healthy male Sprague-Dawley (SD) rats (6-wk old upon receipt; Japan; Body weight ranged in 170-190 g upon receipt) were used after acclimatization for 16 days. Animals were allocated four per polycarbonate cage in a temperature (20-25° C.) and humidity (50-55%) controlled room. Light:dark cycle was 12 hr:12 hr, and standard rodent chow (Samyang, Korea) and water were supplied free to access. All animals were treated in accordance with the Guidelines for Care and Use of Laboratory Animals of Daegu Haany University based on the Guide for the Care and Use of Laboratory Animals by Institute of Laboratory Animal Resources, Commission on Life Science, National Research Council, USA on 1996, Washington D.C. Experimental groups are as follows:\nThe mirodenafil (mirodenafil 2HCl; SK Chemical Life Science Business, KR) was used in this experiment. […] Mirodenafil was stored at 4° C. in a refrigerator to protect from light and humidity until used. Mirodenafil were directly dissolved in saline as 1 mg/ml concentrations, and subcutaneously administered in a volume of 1 ml/kg on the dorsal back skins from 24, 72 and 168 hrs after neuron apoptosis, once a day for 14 days, respectively. In saline and neuron apoptosis control rats, equal volumes of saline as vehicle were administered, instead of mirodenafil from 24 hrs after neuron apoptosis for 20 days, respectively.\nThe induction of neuron apoptosis was carried out by damaging the right hemisphere of the brain of animals. Specifically, animals were anesthetized with 2 or 3% isoflurane in the mixture of 70% N2O and 28.5% O2, and were maintained with 1 to 1.5% isoflurane in the mixture of 70% N2O and 28.5% O2. After that the temporalis muscle was bisected and reflected through an incision made midway between the eye and the eardrum canal. The proximal MCA was exposed through a subtemporal craniectomy by microdental drills without removing the zygomatic arch and without transecting the facial nerve. […] Mortality was less than 5%. For sham control, all procedures were performed in the same way, with the exception of the occlusion of the MCA.\nAt 29 days after neuron apoptosis, rats were sacrificed under deep anesthesia with 3% isoflurane inhalation. Brains were removed, washed in chilled phosphate buffered saline (PBS, pH7.4), and dissected into 6 coronal sections (2 mm thickness) ranging from 2 to 14 mm from the frontal brain pole on the rat brain stainless steel coronal matrix (Harvard, USA). Prepared last 6th cerebral parts were directly fixed in 10% neural buffered formalin. Then, embedded in paraffin, cross-sectioned, and stained with hematoxylin and eosin (H&E) for observing general histopathology of cerebral cortex. […] The histopathologist was blindes to group distribution when this analysis was made.\nHistomorphometry: The atrophic % of ipsilateral cerebral cortex was calculated as following Equation 4 as compared with intact contralateral hemisphere in prepared peri-infarct/defect histological specimens. In addition, the numbers of degenerative neurons were also measured in the restricted view fields of cerebral cortex, mm2, respectively. Cerebral atrophy formation=(Contralateral cerebral cortex area−ipsilateral cerebral cortex area)/Contralateral cerebral cortex area×100(%) [EQUATION 4]\nAll data were expressed as mean±standard deviation (S.D.) of ten rats. Multiple comparison tests for different dose groups were conducted. Variance homogeneity was examined using the Levene test (Levene A, Clin Otalary, 1981; 6:145-51). […] Statistical analyses were conducted using SPSS for Windows (Release 14K, SPSS Inc., USA; Ludbrook, Clin Exp Pharmacol Physiol, 1997; 24:294-6). In addition, the percent changes as compared with neuron apoptosis control and mirodenafil treated rats were calculated to help the understanding of the efficacy of test substances as follow Equation 6 and 7. […]"}, "[2]": {"system": "neuron apoptosis-operated rats", "assay": "Example 2 body swing test", "type": "in vivo, Sprague-Dawley (SD) rats", "description": "Sensorimotor function was evaluated by use of limb placing (de Ryck M et al., Stroke. 20:1383-90(1989)) and body swing (Borlongan and Sanberg, J Neurosci. 15:5372-8(1995)) tests. These tests were performed at 1 and 28 days after neuron apoptosis. The investigator performing the surgery and behavioral assessments was blinded to treatment assignment.\nBody swing tests: Animals were held approximately 2 cm from the base of its tail and elevated to an inch above a surface of a table. A swing was recorded whenever the rat moved its head out of the vertical axis to either side by more than 10° from vertical and then returned to the vertical position. Thirty total swings were counted per animal. After right-hemisphere neuron apoptosis, animals tend to swing to the contralateral (left) side. Thus, the numbers and percentages of body swings to the ipsilateral (right) side were recorded as a measure of recovery, with an intact animal scoring.\nAll data were expressed as mean±standard deviation (S.D.) of ten rats. Multiple comparison tests for different dose groups were conducted. Variance homogeneity was examined using the Levene test (Levene A, Clin Otalary, 1981; 6:145-51). […] Statistical analyses were conducted using SPSS for Windows (Release 14K, SPSS Inc., USA; Ludbrook, Clin Exp Pharmacol Physiol, 1997; 24:294-6). In addition, the percent changes as compared with neuron apoptosis control and mirodenafil treated rats were calculated to help the understanding of the efficacy of test substances as follow Equation 6 and 7. Percentage Changes as Compared with Sham Control (%)=[((Data of neuron apoptosis control−Data of sham control rat)/Data of sham control rats)×100] [EQUATION 6] Percentage Changes as Compared with neuron apoptosis Control (%)=[((Data of test material treated rats−Data of neuron apoptosis control rats)/Data of neuron apoptosis control rats)×100] [EQUATION 7]"}, "[3]": {"settings": "1 mg/kg from 24 hrs after surgery"}, "[4]": {"settings": "1 mg/kg from 72 hrs after surgery"}, "[5]": {"settings": "1 mg/kg from 168 hrs after surgery"}}, "data": [{"smiles": "CCCOc1ccc(S(=O)(=O)N2CCN(CCO)CC2)cc1-c1nc2c(CCC)cn(CC)c2c(=O)[nH]1", "note": "[Mirodenafil, mirodenafil]", "values": [{"measurement": "ipsilateral cerebral atrophic % at 29 days, change as compared with neuron apoptosis control", "setting": "[1]; [3]", "value": "−60.71", "unit": "%"}, {"measurement": "numbers of degenerative neurons at sacrifice, change as compared with neuron apoptosis control", "setting": "[1]; [3]", "value": "−70.64", "unit": "%"}, {"measurement": "ipsilateral cerebral atrophic % at 29 days, change as compared with neuron apoptosis control", "setting": "[1]; [4]", "value": "−26.37", "unit": "%"}, {"measurement": "numbers of degenerative neurons at sacrifice, change as compared with neuron apoptosis control", "setting": "[1]; [4]", "value": "−45.90", "unit": "%"}, {"measurement": "ipsilateral cerebral atrophic % at 29 days, change as compared with neuron apoptosis control", "setting": "[1]; [5]", "value": "−12.31", "unit": "%"}, {"measurement": "numbers of degenerative neurons at sacrifice, change as compared with neuron apoptosis control", "setting": "[1]; [5]", "value": "−15.40", "unit": "%"}, {"measurement": "Cerebral atrophic %", "setting": "[1]; start 24 hrs after operation", "value": "21.90 ± 3.13^ab %"}, {"measurement": "Numbers of neurons: Degenerative cells", "setting": "[1]; start 24 hrs after operation", "value": "22.80 ± 3.69^ab cells/mm^2 of cerebral cortex"}, {"measurement": "Cerebral atrophic %", "setting": "[1]; start 72 hrs after operation", "value": "41.03 ± 5.05^ab %"}, {"measurement": "Numbers of neurons: Degenerative cells", "setting": "[1]; start 72 hrs after operation", "value": "42.01 ± 6.14^ab cells/mm^2 of cerebral cortex"}, {"measurement": "Cerebral atrophic %", "setting": "[1]; start 168 hrs after operation", "value": "48.87 ± 3.25^ac %"}, {"measurement": "Numbers of neurons: Degenerative cells", "setting": "[1]; start 168 hrs after operation", "value": "65.70 ± 7.64^ac cells/mm^2 of cerebral cortex"}, {"measurement": "numbers and percentages of body swings to ipsilateral right sides at 28 days, change as compared with neuron apoptosis control", "setting": "[2]; [3]", "value": 82.00, "unit": "%"}, {"measurement": "numbers and percentages of body swings to ipsilateral right sides at 28 days, change as compared with neuron apoptosis control", "setting": "[2]; [4]", "value": 48.00, "unit": "%"}, {"measurement": "numbers and percentages of body swings to ipsilateral right sides at 28 days, change as compared with neuron apoptosis control", "setting": "[2]; [5]", "value": 14.00, "unit": "%"}]}]}
